Measurements as given in ChEMBL document CHEMBL3244053, “Structural modification study of bis(substituted aminoalkylamino)anthraquinones. An evaluation of the relationship of the [2-[(2-hydroxyethyl)amino]ethyl]amino side chain with antineoplastic activity” (1979).
Activity calls are given as the source filed them. The rule behind the calls is not given here.

Key:
P388 [1] = assay: Antineoplastic activity against mouse P388 cells allografted in CDF1 mouse assessed as survival at 1 mg/kg qd for 9 days; assay type: functional, organism-based; parameters: dose 1 mg/kg
P388 [2] = assay: Antineoplastic activity against mouse P388 cells allografted in CDF1 mouse at 0.06 mg/kg qd for 9 days relative to control; assay type: functional
L1210 [3] = assay: Antineoplastic activity against mouse L1210 cells allografted in CDF1 mouse at 1 mg/kg qd for 9 days relative to control; assay type: functional
L1210 [4] = assay: Antineoplastic activity against mouse L1210 cells allografted in CDF1 mouse at 4 mg/kg qd for 9 days relative to control; assay type: functional
B16 [5] = assay: Antineoplastic activity against mouse B16 cells allografted in BDF1 mouse at 2 mg/kg qd for 9 days relative to control; assay type: functional
P388 [6] = assay: Antineoplastic activity against mouse P388 cells allografted in CDF1 mouse assessed as survival at 0.12 mg/kg qd for 9 days; assay type: functional, organism-based; parameters: dose 0.12 mg/kg
B16 [7] = assay: Antineoplastic activity against mouse B16 cells allografted in BDF1 mouse at 0.5 mg/kg qd for 9 days relative to control; assay type: functional
L1210 [8] = assay: Antineoplastic activity against mouse L1210 cells allografted in CDF1 mouse assessed as survival at 1 mg/kg qd for 9 days; assay type: functional, organism-based; parameters: dose 1 mg/kg
Colon 26 [9] = assay: Antineoplastic activity against mouse Colon 26 cells allografted in CDF1 mouse assessed as survival at 0.39 mg/kg qd for 9 days; assay type: functional, organism-based; parameters: dose 0.39 mg/kg
L1210 [10] = assay: Antineoplastic activity against mouse L1210 cells allografted in CDF1 mouse at 18 mg/kg qd for 9 days relative to control; assay type: functional
P388 [11] = assay: Antineoplastic activity against mouse P388 cells allografted in CDF1 mouse assessed as survival at 0.25 mg/kg qd for 9 days; assay type: functional, organism-based; parameters: dose 0.25 mg/kg
B16 [12] = assay: Antineoplastic activity against mouse B16 cells allografted in BDF1 mouse assessed as survival at 1 mg/kg qd for 9 days; assay type: functional, organism-based; parameters: dose 1 mg/kg
P388 [13] = assay: Antineoplastic activity against mouse P388 cells allografted in CDF1 mouse at 1 mg/kg qd for 9 days relative to control; assay type: functional
P388 [14] = assay: Antineoplastic activity against mouse P388 cells allografted in CDF1 mouse at 0.25 mg/kg qd for 9 days relative to control; assay type: functional
Colon 26 [15] = assay: Antineoplastic activity against mouse Colon 26 cells allografted in CDF1 mouse at 1.08 mg/kg qd for 9 days relative to control; assay type: functional
L1210 [16] = assay: Antineoplastic activity against mouse L1210 cells allografted in CDF1 mouse at 2 mg/kg qd for 9 days relative to control; assay type: functional
B16 [17] = assay: Antineoplastic activity against mouse B16 cells allografted in BDF1 mouse assessed as survival at 2 mg/kg qd for 9 days; assay type: functional, organism-based; parameters: dose 2 mg/kg
Colon 26 [18] = assay: Antineoplastic activity against mouse Colon 26 cells allografted in CDF1 mouse assessed as survival at 0.69 mg/kg qd for 9 days; assay type: functional, organism-based; parameters: dose 0.69 mg/kg
Colon 26 [19] = assay: Antineoplastic activity against mouse Colon 26 cells allografted in CDF1 mouse at 0.69 mg/kg qd for 9 days relative to control; assay type: functional
B16 [20] = assay: Antineoplastic activity against mouse B16 cells allografted in BDF1 mouse assessed as survival at 0.5 mg/kg qd for 9 days; assay type: functional, organism-based; parameters: dose 0.5 mg/kg
L1210 [21] = assay: Antineoplastic activity against mouse L1210 cells allografted in CDF1 mouse assessed as survival at 2 mg/kg qd for 9 days; assay type: functional, organism-based; parameters: dose 2 mg/kg
Colon 26 [22] = assay: Antineoplastic activity against mouse Colon 26 cells allografted in CDF1 mouse assessed as survival at 1.08 mg/kg qd for 9 days; assay type: functional, organism-based; parameters: dose 1.08 mg/kg
B16 [23] = assay: Antineoplastic activity against mouse B16 cells allografted in BDF1 mouse assessed as survival at 0.25 mg/kg qd for 9 days; assay type: functional, organism-based; parameters: dose 0.25 mg/kg
P388 [24] = assay: Antineoplastic activity against mouse P388 cells allografted in CDF1 mouse at 0.12 mg/kg qd for 9 days relative to control; assay type: functional
P388 [25] = assay: Antineoplastic activity against mouse P388 cells allografted in CDF1 mouse at 0.5 mg/kg qd for 9 days relative to control; assay type: functional
Colon 26 [26] = assay: Antineoplastic activity against mouse Colon 26 cells allografted in CDF1 mouse at 0.39 mg/kg qd for 9 days relative to control; assay type: functional
L1210 [27] = assay: Antineoplastic activity against mouse L1210 cells allografted in CDF1 mouse at 10.8 mg/kg qd for 9 days relative to control; assay type: functional
P388 [28] = assay: Antineoplastic activity against mouse P388 cells allografted in CDF1 mouse assessed as survival at 2 mg/kg qd for 9 days; assay type: functional, organism-based; parameters: dose 2 mg/kg
B16 [29] = assay: Antineoplastic activity against mouse B16 cells allografted in BDF1 mouse at 0.25 mg/kg qd for 9 days relative to control; assay type: functional
L1210 [30] = assay: Antineoplastic activity against mouse L1210 cells allografted in CDF1 mouse assessed as survival at 10.8 mg/kg qd for 9 days; assay type: functional, organism-based; parameters: dose 10.8 mg/kg
L1210 [31] = assay: Antineoplastic activity against mouse L1210 cells allografted in CDF1 mouse assessed as survival at 4 mg/kg qd for 9 days; assay type: functional, organism-based; parameters: dose 4 mg/kg
B16 [32] = assay: Antineoplastic activity against mouse B16 cells allografted in BDF1 mouse at 1 mg/kg qd for 9 days relative to control; assay type: functional
P388 [33] = assay: Antineoplastic activity against mouse P388 cells allografted in CDF1 mouse at 2 mg/kg qd for 9 days relative to control; assay type: functional
P388 [34] = assay: Antineoplastic activity against mouse P388 cells allografted in CDF1 mouse assessed as survival at 0.06 mg/kg qd for 9 days; assay type: functional, organism-based; parameters: dose 0.06 mg/kg
P388 [35] = assay: Antineoplastic activity against mouse P388 cells allografted in CDF1 mouse assessed as survival at 0.5 mg/kg qd for 9 days; assay type: functional, organism-based; parameters: dose 0.5 mg/kg
L1210 [36] = assay: Antineoplastic activity against mouse L1210 cells allografted in CDF1 mouse assessed as survival at 18 mg/kg qd for 9 days; assay type: functional, organism-based; parameters: dose 18 mg/kg

With `O=C1c2c(O)ccc(O)c2C(=O)c2c(NCCNCCO)ccc(NCCNCCO)c21` [MITOXANTRONE] the Activity (P388 [1]) was “Active”, the T/C (P388 [2]) was 192% and the T/C (L1210 [3]) was 163%. For the same compound, the T/C (L1210 [4]) was 256%, the T/C (B16 [5]) was 231% and the Activity (P388 [6]) was “Active”. The T/C (B16 [7]) was 299%, the Activity (L1210 [8]) was “Active” and the Activity (Colon 26 [9]) was “Active”. For the same compound, the T/C (L1210 [10]) was 308%, the Activity (P388 [11]) was “Active” and the Activity (B16 [12]) was “Active”. For the same compound, the T/C (P388 [13]) was 381%, the T/C (P388 [14]) was 224% and the T/C (Colon 26 [15]) was 353%. For the same compound, the T/C (L1210 [16]) was 198%, the Activity (B16 [17]) was “Active” and the Activity (Colon 26 [18]) was “Active”. For the same compound, the T/C (Colon 26 [19]) was 305%, the Activity (B16 [20]) was “Active” and the Activity (L1210 [21]) was “Active”. The Activity (Colon 26 [22]) was “Active”, the Activity (B16 [23]) was “Active” and the T/C (P388 [24]) was 210%. The T/C (P388 [25]) was 305%, the T/C (Colon 26 [26]) was 259% and the T/C (L1210 [27]) was 261%. The Activity (P388 [28]) was “Active”, the T/C (B16 [29]) was 186% and the Activity (L1210 [30]) was “Active”. For the same compound, the Activity (L1210 [31]) was “Active”, the T/C (B16 [32]) was 342% and the T/C (P388 [33]) was 230%. The Activity (P388 [34]) was “Active”, the Activity (P388 [35]) was “Active” and the Activity (L1210 [36]) was “Active”.
